Where “and” joins values, the source holds several entries; their conditions need not be identical. Identical values can stand only once.
System: 935938-334-R-J1-PDC complex spheroid viability
Assay: Anticancer human tumor 935938-334-R-J1-PDC patient-derived small intestine adenocarcinoma cell line growth inhibition [POLQ]
Conditions: for viability, T/C: stronger effect = lower value
Method: Multicellular complex tumor spheroid response to Polymerase (POL) inhibitors (novobiocin, ART-558, RP6685) in combination with a variety of drugs and investigational agents in selected tumor cell lines
The POL inhibitors (novobiocin, ART-558, and RP6685) were evaluated both individually and in combination with standard of care and investigational anticancer small molecules within a complex spheroid model of solid tumors. . Complex spheroids include a stromal component modeled by human endothelial cells (HUVEC) and fibroblasts modeled by human mesenchymal stem cells (MSCs). The concentration ranges selected for each drug and investigational agent were based upon clinically achievable concentrations if the clinical Cmax of the agent was known.
Compounds. The drugs and investigational agents: novobiocin (NSC847541), ART-558 (NSC835418), RP-6685 (NSC848927), peposertib (NSC802822), ceralasertib (NSC780249), elimusertib (NSC800525), camonsertib (NSC841442), AZD-1390 (NSC803789), olaparib (NSC753686), talazoparib (NSC767125), rucaparib (NSC756644), sotorasib (NSC818433), MRTX-1133 (NSC836407), SN-38 (NSC673596), topotecan (NSC609699), epotoside (NSC141540), doxorubicin (NSC123127), gemcitabine (NSC613327), 5-fluorouracil (NSC19893), paclitaxel (NSC125973), vemurafenib (NSC761431), MSA-2 (NSC828583), SN-011 (NSC837082), adavosertib (NSC754352), prexasertib (NSC758257), carboplatin (NSC241240) and oxaliplatin (NSC266046), were obtained from the National Cancer Institute (NCI) Developmental Therapeutics Program Chemical Repository (21). The FDA-approved anticancer drug set is available from the Developmental Therapeutics Program at https://dtp.cancer.gov/organization/dscb/obtaining/. […] The stock solutions were prepared in dimethyl sulfoxide (DMSO, Sigma-Aldrich, St. Louis, MO, cat. D2650), except for the platinum compounds which were prepared in saline (Quality Biological, Gaithersburg, MD, cat. 114-055-101), at 800-fold the tested concentration and stored at -70 degrees C prior to their use. All drugs and investigational agents were tested over a range starting from a high concentration at or near the clinical Cmax and decreasing in half-log increments. If the clinical Cmax for an agent had not been determined, the highest concentration tested was 10 microM, except for SN-38, which was tested at a high concentration of 1 microM.
Cell Culture. All cells were maintained in an incubator at 37 degrees C and 5% CO2 with 95% humidity. The PDC lines were cultured according to standard operating procedures established by the NCI PDMR (https://pdmr.cancer.gov). Table 3 of the manuscript, lists the cell lines along with the number of the three cell types plated to form the mct-spheroids and media for tumor cell growth. After thawing, all PDC lines, except 997537-175-T-J1-PDC and 415267-285-R-J2-PDC, were cultured in Matrigel-coated flasks prepared with a working solution of 1X Ham's F-12 nutrient mix, without supplementation (Thermo Fisher Scientific, cat. 11765054), 100 U/mL penicillin-streptomycin (Thermo Fisher Scientific, cat. 15140122), and 2.5% Matrigel (Corning Inc., Corning, NY, cat. 354248) for the first three passages. The two PDC lines 997537-175-T-J1-PDC and 415267-285-R-J2-PDC were cultured on uncoated flasks. The 857933-349-R-J2-PDC line was cultured in 6C/Colon 1B media containing advanced DMEM/F-12 (Thermo Fisher Scientific, cat. 12634028), 10 mM HEPES (Thermo Fisher Scientific, cat. 15630080), 1X GlutaMAX supplement (Thermo Fisher Scientific, cat. 35050061), 0.1 mg/mL primocin (InvivoGen, San Diego, CA, cat. ant-pm-2), 10% defined fetal bovine serum, heat inactivated (HyClone Laboratories Inc., Logan, UT, cat. SH30070.03HI), 50% L-WRN conditioned media (ATCC, cat. CRL-3276), 1.25 mM N-Acetyl-L-cysteine (Sigma-Aldrich, cat. A9165), 10 mM nicotinamide (Sigma-Aldrich, cat. N0636), 1X B-27 supplement (Thermo Fisher Scientific, cat. 17504044), 1X N-2 supplement (Thermo Fisher Scientific, cat. […]
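Also: spheroids exposed to drugs for seven days before viability read.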
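For viability, T/C in this document: 100% = DMSO vehicle control wells.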

Q: With COc1ccc([C@@H](O)c2cc(-c3ncnc4cc(N5CCOCC5)ccc34)c(F)cc2Cl)nn1 + COC1C(OC(N)=O)C(O)C(Oc2ccc3c(O)c(NC(=O)c4ccc(O)c(CC=C(C)C)c4)c(=O)oc3c2C)OC1(C)C as the compound, how does the IC50 (curve of first compound, second compound 0.0316 µM) read?
A: 5.47 µM

Q: And the IC50 (curve of first compound, second compound 0.1 µM)?
A: 4.65 µM

Q: And the IC50 (curve of first compound, second compound 0.316 µM)?
A: 4.59 µM

Q: What about the IC50 (curve of first compound, second compound 1 µM) of the same compound?
A: 3.26 µM

Q: What about the IC50 (curve of first compound, second compound 3.16 µM) of the same compound?
A: 6.59 µM

Q: And the IC50 (curve of first compound, second compound 10 µM)?
A: 6.65 µM

Q: What about the viability, T/C (second compound 0.0316 µM, first compound 0.0316 µM) of the same compound?
A: 96.2%

Q: And the viability, T/C (second compound 0.0316 µM, first compound 0.1 µM)?
A: 131%

Q: And the viability, T/C (second compound 0.0316 µM, first compound 0.316 µM)?
A: 106%

Q: And the viability, T/C (second compound 0.0316 µM, first compound 1 µM)?
A: 76.4%

Q: What about the viability, T/C (second compound 0.0316 µM, first compound 3.16 µM) of the same compound?
A: 67.5%

Q: And the viability, T/C (second compound 0.0316 µM, first compound 10 µM)?
A: 36.3%

Q: And the viability, T/C (second compound 0.1 µM, first compound 0.0316 µM)?
A: 111%

Q: And the viability, T/C (second compound 0.1 µM, first compound 0.1 µM)?
A: 106%

Q: What about the viability, T/C (second compound 0.1 µM, first compound 0.316 µM) of the same compound?
A: 75%

Q: What about the viability, T/C (second compound 0.1 µM, first compound 1 µM) of the same compound?
A: 89.2%

Q: What about the viability, T/C (second compound 0.1 µM, first compound 3.16 µM) of the same compound?
A: 64.4%

Q: What about the viability, T/C (second compound 0.1 µM, first compound 10 µM) of the same compound?
A: 26.6%

Q: What about the viability, T/C (second compound 0.316 µM, first compound 0.0316 µM) of the same compound?
A: 102%

Q: And the viability, T/C (second compound 0.316 µM, first compound 0.1 µM)?
A: 103%

Q: And the viability, T/C (second compound 0.316 µM, first compound 0.316 µM)?
A: 98.2%

Q: And the viability, T/C (second compound 0.316 µM, first compound 1 µM)?
A: 59.3%

Q: What about the viability, T/C (second compound 0.316 µM, first compound 3.16 µM) of the same compound?
A: 66.3%

Q: And the viability, T/C (second compound 0.316 µM, first compound 10 µM)?
A: 35.1%

Q: What about the viability, T/C (second compound 1 µM, first compound 0.0316 µM) of the same compound?
A: 113%

Q: What about the viability, T/C (second compound 1 µM, first compound 0.1 µM) of the same compound?
A: 125%

Q: What about the viability, T/C (second compound 1 µM, first compound 0.316 µM) of the same compound?
A: 111%

Q: And the viability, T/C (second compound 1 µM, first compound 1 µM)?
A: 85.2%

Q: And the viability, T/C (second compound 1 µM, first compound 3.16 µM)?
A: 51.6%

Q: And the viability, T/C (second compound 1 µM, first compound 10 µM)?
A: 33.9%

Q: What about the viability, T/C (second compound 3.16 µM, first compound 0.0316 µM) of the same compound?
A: 115%

Q: And the viability, T/C (second compound 3.16 µM, first compound 0.1 µM)?
A: 97.8%

Q: What about the viability, T/C (second compound 3.16 µM, first compound 0.316 µM) of the same compound?
A: 108%

Q: And the viability, T/C (second compound 3.16 µM, first compound 1 µM)?
A: 81.4%

Q: And the viability, T/C (second compound 3.16 µM, first compound 3.16 µM)?
A: 73%

Q: What about the viability, T/C (second compound 3.16 µM, first compound 10 µM) of the same compound?
A: 38.1%

Q: And the viability, T/C (second compound 10 µM, first compound 0.0316 µM)?
A: 95.8%

Q: What about the viability, T/C (second compound 10 µM, first compound 0.1 µM) of the same compound?
A: 72.4%

Q: And the viability, T/C (second compound 10 µM, first compound 0.316 µM)?
A: 96.4%

Q: What about the viability, T/C (second compound 10 µM, first compound 1 µM) of the same compound?
A: 70.4%

Q: What about the viability, T/C (second compound 10 µM, first compound 3.16 µM) of the same compound?
A: 80%

Q: What about the viability, T/C (second compound 10 µM, first compound 10 µM) of the same compound?
A: 34.8%

Q: COC1C(OC(N)=O)C(O)C(Oc2ccc3c(O)c(NC(=O)c4ccc(O)c(CC=C(C)C)c4)c(=O)oc3c2C)OC1(C)C (stereo not given) was tested. Which IC50 (compound alone, run of 11/27/2023) did it give?
A: > 10 µM

Q: For C=CCn1c(=O)c2cnc(Nc3ccc(N4CCN(C)CC4)cc3)nc2n1-c1cccc(C(C)(C)O)n1, which viability, T/C (compound 0.00316 µM) is on record?
A: 104% and 93.2% and 96.4%

Q: What about the viability, T/C (compound 0.01 µM) of the same compound?
A: 122% and 109% and 68.7%

Q: What about the viability, T/C (compound 0.0316 µM) of the same compound?
A: 98.9% and 94.2% and 106%

Q: And the viability, T/C (compound 0.1 µM)?
A: 87.7% and 94.9% and 106%

Q: What about the viability, T/C (compound 0.316 µM) of the same compound?
A: 90.8% and 93.2% and 71.3%

Q: And the viability, T/C (compound 1 µM)?
A: 33.3% and 32.5% and 27.3%

Q: And the IC50 (curve of compound)?
A: 0.694 µM and 0.719 µM and 0.552 µM

Q: With COc1ccc([C@@H](O)c2cc(-c3ncnc4cc(N5CCOCC5)ccc34)c(F)cc2Cl)nn1 as the compound, how does the viability, T/C (compound 0.0316 µM) read?
A: 92.9% and 78.8% and 78%

Q: What about the viability, T/C (compound 0.1 µM) of the same compound?
A: 81.3% and 85.4% and 74.1%

Q: What about the viability, T/C (compound 0.316 µM) of the same compound?
A: 104% and 91.9% and 83.3%

Q: And the viability, T/C (compound 1 µM)?
A: 67.2% and 91.9% and 95.6%

Q: What about the viability, T/C (compound 3.16 µM) of the same compound?
A: 78% and 69.2% and 62.2%

Q: What about the viability, T/C (compound 10 µM) of the same compound?
A: 36.1% and 31.2% and 33.4%

Q: And the IC50 (curve of compound)?
A: 6.47 µM and 5.66 µM and 5.15 µM

Q: For Nc1ccc(C#CCN(C(=O)Cc2ncc(C(F)(F)F)cc2C(F)(F)F)c2ccc(F)cc2)nn1, which IC50 (compound alone, run of 12/05/2023) is on record?
A: > 10 µM

Q: For C=CC(=O)N1CCN(c2nc(=O)n(-c3c(C)ccnc3C(C)C)c3nc(-c4c(O)cccc4F)c(F)cc23)C(C)C1 (stereo not given), which viability, T/C (compound 0.0316 µM) is on record?
A: 83.1% and 99.4% and 81.4%

Q: What about the viability, T/C (compound 0.1 µM) of the same compound?
A: 94.9% and 68.4% and 69.6%

Q: What about the viability, T/C (compound 0.316 µM) of the same compound?
A: 89.5% and 99.7% and 67.9%

Q: What about the viability, T/C (compound 1 µM) of the same compound?
A: 89.7% and 115% and 113%

Q: And the viability, T/C (compound 3.16 µM)?
A: 102% and 110% and 112%

Q: What about the viability, T/C (compound 10 µM) of the same compound?
A: 99.6% and 131% and 105%

Q: And the IC50 (curve of compound)?
A: > 10 µM

From PubChem BioAssay AID1963829 (Molecular Pharmacology Branch, DTP, NCI, 2024)
